According to the SangsterLogP compilation:
Where a SMILES comes first, the peptide text is derived from it. [ ]: non-standard residue; d: D form. Orn = NCCC[CH](N)C(=O)O

Assay: method code SF-AS, from DOI: 10.1002/jps.2600830720, PMID: 7965659
Conditions: pH 2.0

Q: With `CC(=O)N[C@@H](CC(C)C)C(=O)N[C@@H](CC(=O)O)C(=O)N[C@@H](CC(C)C)C(N)=O` as the molecule, how does the logD read?
A: 0.16

Q: For `CCC(C)C(NC(C)=O)C(=O)NC(CC(C)C)C(=O)NC(CC(=O)O)C(N)=O` (stereo not drawn) (Ac-Ile-Leu-Asp-NH2; configuration not given here), which logD is on record?
A: -0.04

Q: For `CC[C@H](C)[C@H](NC(=O)[C@H](CC(=O)O)NC(C)=O)C(=O)N[C@@H](Cc1ccccc1)C(N)=O`, which logD is on record?
A: 0.61

Q: For `CCC(C)C(NC(=O)C(CC(C)C)NC(C)=O)C(=O)NC(CCC(=O)O)C(N)=O` (stereo not drawn) (Ac-Leu-Ile-Glu-NH2; configuration not given here), which logD is on record?
A: 0.07

Q: Which logD does the source give for `CC[C@H](C)[C@H](NC(=O)[C@H](CCC(=O)O)NC(C)=O)C(=O)N[C@@H](Cc1ccccc1)C(N)=O` (Ac-Glu-Ile-Phe-NH2) here?
A: 0.43

Q: For `CC(=O)N[C@@H](CCC(=O)O)C(=O)N[C@@H](Cc1ccccc1)C(=O)N[C@@H](CC(C)C)C(N)=O`, which logD is on record?
A: 0.32

Q: Which logD does the source give for `CC(=O)NC(Cc1ccccc1)C(=O)NC(CCC(=O)O)C(=O)NC(Cc1ccccc1)C(N)=O` (stereo not drawn) (Ac-Phe-Glu-Phe-NH2; configuration not given here) here?
A: 0.65

Q: For `CC(=O)N[C@@H](CC(=O)O)C(=O)N[C@@H](Cc1ccccc1)C(=O)N[C@@H](CC(C)C)C(N)=O`, which logD is on record?
A: 0.4

Q: Which logD does the source give for `CC(=O)N[C@@H](CC(C)C)C(=O)N[C@@H](CCC(=O)O)C(=O)N[C@@H](Cc1ccccc1)C(N)=O` here?
A: 0.48

Q: With `CC(=O)N[C@@H](Cc1ccccc1)C(=O)N[C@@H](CC(=O)O)C(=O)N[C@@H](CC(C)C)C(N)=O` as the molecule, how does the logD read?
A: 0.39

Same assay, conditions: pH 7.0

Q: Which logD does the source give for `CSCC[C@H](NC(=O)[C@H](C)NC(C)=O)C(=O)N[C@H](C(N)=O)C(C)C` here?
A: -0.63

Q: Which logD does the source give for `CSCC[C@H](NC(C)=O)C(=O)N[C@H](C(N)=O)C(C)C` here?
A: -0.28

Q: For `CSCC[C@H](NC(C)=O)C(=O)N[C@@H](Cc1ccccc1)C(N)=O`, which logD is on record?
A: 0.42

Q: For `CC[C@H](C)[C@H](NC(C)=O)C(=O)N[C@@H](C)C(=O)N[C@H](C(N)=O)C(C)C`, which logD is on record?
A: -0.21

Q: For `CC[C@H](C)[C@H](NC(C)=O)C(=O)N[C@@H](CCSC)C(=O)N[C@@H](Cc1ccccc1)C(N)=O` (Ac-Ile-Met-Phe-NH2), which logD is on record?
A: 1.28

Same assay, conditions: pH 10.0

Q: Which logD does the source give for `CC[C@H](C)[C@H](NC(=O)[C@H](CCCN)NC(C)=O)C(=O)N[C@H](C(N)=O)C(C)C` here?
A: -0.43

Q: Which logD does the source give for `CC[C@H](C)[C@H](NC(C)=O)C(=O)N[C@@H](Cc1c[nH]cn1)C(=O)N[C@H](C(N)=O)C(C)C` here?
A: -0.24

Q: With `CC(=O)NC(Cc1ccccc1)C(=O)NC(Cc1c[nH]cn1)C(=O)NC(CC(C)C)C(N)=O` (stereo not drawn) (Ac-Phe-His-Leu-NH2; configuration not given here) as the molecule, how does the logD read?
A: 0.64

Q: With `CC(=O)NC(CCCN)C(=O)NC(Cc1ccccc1)C(N)=O` (stereo unspecified) as the molecule, how does the logD read?
A: -0.41

Q: Which logD does the source give for `CCC(C)C(NC(=O)C(Cc1c[nH]cn1)NC(C)=O)C(=O)NC(Cc1ccccc1)C(N)=O` (stereo not drawn) (Ac-His-Ile-Phe-NH2; configuration not given here) here?
A: 0.44

Q: For `CC(=O)NC(Cc1c[nH]c2ccccc12)C(=O)NC(Cc1cnc[nH]1)C(=O)NC(C(N)=O)C(C)C` (stereo not drawn) (Ac-Trp-His-Val-NH2; configuration not given here), which logD is on record?
A: 0.31

Q: Which logD does the source give for `CC(=O)NCC(=O)N[C@@H](Cc1ccccc1)C(=O)N[C@@H](Cc1c[nH]cn1)C(N)=O` here?
A: -0.92

Q: For `CC(=O)NC(CC(C)C)C(=O)NC(CCCN)C(=O)NC(Cc1ccccc1)C(N)=O` (stereo unspecified) (Ac-Leu-[Orn]-Phe-NH2; configuration not given here), which logD is on record?
A: 0.53

Q: With `CC(=O)NC(Cc1ccccc1)C(=O)NC(Cc1c[nH]c2ccccc12)C(=O)NC(Cc1cnc[nH]1)C(N)=O` (stereo not drawn) (Ac-Phe-Trp-His-NH2; configuration not given here) as the molecule, how does the logD read?
A: 1

Q: Which logD does the source give for `CC(=O)NC(CCCN)C(=O)NC(CC(C)C)C(N)=O` (stereo unspecified) (Ac-[Orn]-Leu-NH2; configuration not given here) here?
A: -0.71

Q: With `CC(=O)NC(CCCN)C(=O)NC(Cc1ccccc1)C(=O)NC(CC(C)C)C(N)=O` (stereo not drawn) (Ac-[Orn]-Phe-Leu-NH2; configuration not given here) as the molecule, how does the logD read?
A: 0.54
